Data: patent US10947252B2, “Inhibitors of KEAP1-Nrf2 protein-protein interaction” (Janssen Pharmaceutica NV, priority 2018, dated 2021)

What follows are molecules tested on Glo-Response ARE-luc2P HEK293 cell line (assay: ARE luciferase reporter cell-based assay). Settings: Homo sapiens, HEK293, 24 h, average of results obtained.
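Also: luciferase signal tracks Nrf2 activation of the ARE once compounds disrupt KEAP1-Nrf2 binding, read with One-Glo reagent, DMSO serving as low control.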

**Q.** CC[C@@H]1CN(Cc2cc([C@H](CC(=O)O)c3ccn4c(C(F)F)nnc4c3C)ccc2C)S(=O)(=O)c2cccnc2O1 (relative stereo) [Example 464, (*S)-3-(3-(Difluoromethyl)-8-methyl-[1,2,4]triazolo[4,3-a]pyridin-7-yl)-3-(3-(((R)-4-ethyl-1,1-dioxido-3,4-dihydro-2H-pyrido[2,3-b][1,4,5]oxathiazepin-2-yl)methyl)-4-methylphenyl)propanoic Acid] was tested. Which EC50 did it give?
**A.** 24.7 nM

**Q.** Cc1cnc2c(c1)S(=O)(=O)N(Cc1nc([C@@H](CC(=O)O)c3ccn4c(C(F)(F)F)nnc4c3C)ccc1C)C[C@@H]1CCCCN21 (relative stereo) [Example 488, (*S)-3-(8-Methyl-3-(trifluoromethyl)-[1,2,4]triazolo[4,3-a]pyridin-7-yl)-3-(5-methyl-6-(((*S)-3-methyl-5,5-dioxido-7,7a,8,9,10,11-hexahydro-6H-dipyrido[2,1-d:2′,3′-f][1,2,5]thiadiazepin-6-yl)methyl)pyridin-2-yl)propanoic Acid] was tested. Which EC50 did it give?
**A.** 11.9 nM

**Q.** Cc1ccc([C@H](c2ccn3c(C(F)(F)F)nnc3c2C)C(C)C(=O)O)nc1CN1C[C@@H]2CCCCN2c2ncc(F)cc2S1(=O)=O (relative stereo) [Example 506, (3*S)-3-(6-(((S)-3-fluoro-5,5-dioxido-7,7a,8,9,10,11-hexahydro-6H-dipyrido[2,1-d:2′,3′-f][1,2,5]thiadiazepin-6-yl)methyl)-5-methylpyridin-2-yl)-2-methyl-3-(8-methyl-3-(trifluoromethyl)-[1,2,4]triazolo[4,3-a]pyridin-7-yl)propanoic Acid] was tested. Which EC50 did it give?
**A.** 7.83 nM

**Q.** Which EC50 does the source give for Cc1ccc([C@@H](c2ccn3c(C(F)(F)F)nnc3c2C)C(C)C(=O)O)nc1CN1C[C@@H]2CCCCN2c2ncc(F)cc2S1(=O)=O (relative stereo) [Example 507, (3*R)-3-(6-(((*S)-3-Fluoro-5,5-dioxido-7,7a,8,9,10,11-hexahydro-6H-dipyrido[2,1-d:2′,3′-f][1,2,5]thiadiazepin-6-yl)methyl)-5-methylpyridin-2-yl)-2-methyl-3-(8-methyl-3-(trifluoromethyl)-[1,2,4]triazolo[4,3-a]pyridin-7-yl)propanoic Acid] here?
**A.** 0.73 nM

**Q.** With Cc1ccc([C@H](CC(=O)O)c2ccn3c(C(F)F)nnc3c2C)cc1CN1C[C@@H]2CCCCN2c2ncc(F)cc2S1(=O)=O (relative stereo) [Example 511, (*S)-3-(3-(Difluoromethyl)-8-methyl-[1,2,4]triazolo[4,3-a]pyridin-7-yl)-3-(3-(((*S)-3-fluoro-5,5-dioxido-7,7a,8,9,10,11-hexahydro-6H-dipyrido[2,1-d:2′,3′-f][1,2,5]thiadiazepin-6-yl)methyl)-4-methylphenyl)propanoic Acid] as the molecule, how does the EC50 read?
**A.** 1.52 nM

**Q.** Cc1ccc([C@H](CC(=O)O)c2ccn3c(C(F)F)nnc3c2C)cc1CN1C[C@H]2CCCCN2c2ncc(F)cc2S1(=O)=O (relative stereo) [Example 512, (*S)-3-(3-(Difluoromethyl)-8-methyl-[1,2,4]triazolo[4,3-a]pyridin-7-yl)-3-(3-(((*R)-3-fluoro-5,5-dioxido-7,7a,8,9,10,11-hexahydro-6H-dipyrido[2,1-d:2′,3′-f][1,2,5]thiadiazepin-6-yl)methyl)-4-methylphenyl)propanoic Acid] was tested. Which EC50 did it give?
**A.** 3.21 nM

**Q.** For CCc1c([C@H](c2ccc(C)c(CN3C[C@@H]4CCCCN4c4ncc(C)cc4S3(=O)=O)c2)C(C)C(=O)O)ccn2c(C(F)(F)F)nnc12 (relative stereo) [Example 513, (3*S)-3-(8-Ethyl-3-(trifluoromethyl)-[1,2,4]triazolo[4,3-a]pyridin-7-yl)-2-methyl-3-(4-methyl-3-(((*S)-3-methyl-5,5-dioxido-7,7a,8,9,10,11-hexahydro-6H-dipyrido[2,1-d:2′,3′-f][1,2,5]thiadiazepin-6-yl)methyl)phenyl)propanoic Acid], which EC50 is on record?
**A.** 1.63 nM

**Q.** Cc1cnc2c(c1)S(=O)(=O)N(Cc1cc([C@@H](c3ccn4c(C(F)(F)F)nnc4c3C)C(C)C(=O)O)ccc1C)C[C@@H]1CCCCN21 (relative stereo) [Example 514, (3*S)-2-Methyl-3-(4-methyl-3-(((*S)-3-methyl-5,5-dioxido-7,7a,8,9,10,11-hexahydro-6H-dipyrido[2,1-d:2′,3′-f][1,2,5]thiadiazepin-6-yl)methyl)phenyl)-3-(8-methyl-3-(trifluoromethyl)-[1,2,4]triazolo[4,3-a]pyridin-7-yl)propanoic Acid] was tested. Which EC50 did it give?
**A.** 1.7 nM

**Q.** For CCc1c([C@H](c2ccc(C)c(CN3C[C@H]4CCCCN4c4ncc(C)cc4S3(=O)=O)c2)C(C)C(=O)O)ccn2c(C(F)(F)F)nnc12 (relative stereo) [Example 515, (3*S)-3-(8-Ethyl-3-(trifluoromethyl)-[1,2,4]triazolo[4,3-a]pyridin-7-yl)-2-methyl-3-(4-methyl-3-(((*R)-3-methyl-5,5-dioxido-7,7a,8,9,10,11-hexahydro-6H-dipyrido[2,1-d:2′,3′-f][1,2,5]thiadiazepin-6-yl)methyl)phenyl)propanoic Acid], which EC50 is on record?
**A.** 1.33 nM

**Q.** For CCc1c([C@@H](CC(=O)O)c2ccc(C)c(CN3C[C@@H]4CCCCN4c4ncc(C)cc4S3(=O)=O)c2)ccn2c(C(F)(F)F)nnc12 (relative stereo) [Example 517, (*S)-3-(8-Ethyl-3-(trifluoromethyl)-[1,2,4]triazolo[4,3-a]pyridin-7-yl)-3-(4-methyl-3-(((*S)-3-methyl-5,5-dioxido-7,7a,8,9,10,11-hexahydro-6H-dipyrido[2,1-d:2′,3′-f][1,2,5]thiadiazepin-6-yl)methyl)phenyl)propanoic Acid], which EC50 is on record?
**A.** 10.3 nM

**Q.** Cc1ccc([C@H](CC(=O)O)c2ccn3c(C(F)(F)F)nnc3c2C)nc1CN1C[C@H]2CCCCN2c2ncc(Cl)cc2S1(=O)=O (relative stereo) [Example 522, (*R)-3-(6-(((*R)-3-Chloro-5,5-dioxido-7,7a,8,9,10,11-hexahydro-6H-dipyrido[2,1-d:2′,3′-f][1,2,5]thiadiazepin-6-yl)methyl)-5-methylpyridin-2-yl)-3-(8-methyl-3-(trifluoromethyl)-[1,2,4]triazolo[4,3-a]pyridin-7-yl)propanoic Acid] was tested. Which EC50 did it give?
**A.** 5.06 nM

**Q.** How did the EC50 turn out when Cc1cnc2c(c1)S(=O)(=O)N(Cc1cc([C@H](c3ccn4c(C(F)(F)F)nnc4c3C)[C@H](C)C(=O)O)ccc1C)CC1(CC1)O2 (relative stereo) [Example 545, (2*S,3*R)-2-Methyl-3-(4-methyl-3-((8′-methyl-1′,1′-dioxidospiro[cyclopropane-1,4′-pyrido[2,3-b][1,4,5]oxathiazepin]-2′(3′H)-yl)methyl)phenyl)-3-(8-methyl-3-(trifluoromethyl)-[1,2,4]triazolo[4,3-a]pyridin-7-yl)propanoic Acid] was run?
**A.** 49.8 nM

**Q.** Cc1cnc2c(c1)S(=O)(=O)N(Cc1cc([C@H](c3ccn4c(C(F)(F)F)nnc4c3C)[C@@H](C)C(=O)O)ccc1C)CC1(CC1)O2 (relative stereo) [Example 546, (2*R,3*R)-2-Methyl-3-(4-methyl-3-((8′-methyl-1′,1′-dioxidospiro[cyclopropane-1,4′-pyrido[2,3-b][1,4,5]oxathiazepin]-2′(3′H)-yl)methyl)phenyl)-3-(8-methyl-3-(trifluoromethyl)-[1,2,4]triazolo[4,3-a]pyridin-7-yl)propanoic Acid] was tested. Which EC50 did it give?
**A.** > 20000 nM

**Q.** With Cc1ncc([C@@H](c2ccn3c(C(F)(F)F)nnc3c2C)C(C)(C)C(=O)O)cc1CN1C[C@H]2CCCCN2c2ncc(C#N)cc2S1(=O)=O (relative stereo) [Example 654, (*R)-3-(5-(((*R)-3-Cyano-5,5-dioxido-7,7a,8,9,10,11-hexahydro-6H-dipyrido[2,1-d:2′,3′-f][1,2,5]thiadiazepin-6-yl)methyl)-6-methylpyridin-3-yl)-2,2-dimethyl-3-(8-methyl-3-(trifluoromethyl)-[1,2,4]triazolo[4,3-a]pyridin-7-yl)propanoic Acid] as the molecule, how does the EC50 read?
**A.** 6880 nM

**Q.** Cc1ncc([C@H](c2ccn3c(C(F)(F)F)nnc3c2C)C(C)(C)C(=O)O)cc1CN1C[C@H]2CCCCN2c2ncc(C#N)cc2S1(=O)=O (relative stereo) [Example 656, (*S)-3-(5-(((*R)-3-Cyano-5,5-dioxido-7,7a,8,9,10,11-hexahydro-6H-dipyrido[2,1-d:2′,3′-f][1,2,5]thiadiazepin-6-yl)methyl)-6-methylpyridin-3-yl)-2,2-dimethyl-3-(8-methyl-3-(trifluoromethyl)-[1,2,4]triazolo[4,3-a]pyridin-7-yl)propanoic Acid] was tested. Which EC50 did it give?
**A.** 3590 nM

**Q.** How did the EC50 turn out when CCn1nnc2c(C)c([C@H](c3ccc(C)c(CN4CC5(CCOCC5)Oc5ncccc5S4(=O)=O)c3)C(C)(C)C(=O)O)ccc21 (single isomer, unassigned) [Example 15, (*S)-3-(3-((1′,1′-Dioxido-2,3,5,6-tetrahydrospiro[pyran-4,4′-pyrido[2,3-b][1,4,5]oxathiazepin]-2′(3′H)-yl)methyl)-4-methylphenyl)-3-(1-ethyl-4-methyl-1H-benzo[d][1,2,3]triazol-5-yl)-2,2-dimethylpropanoic Acid] was run?
**A.** 0.3 nM

**Q.** With Cc1cnc2c(c1)S(=O)(=O)N(Cc1cc([C@@H](c3ccn4c(C(F)(F)F)nnc4c3C)C(C)(C)C(=O)O)ccc1C)CC1(CCOCC1)O2 (single isomer, unassigned) [Example 18, (*S)-2,2-Dimethyl-3-(4-methyl-3-((8′-methyl-1′,1′-dioxido-2,3,5,6-tetrahydrospiro[pyran-4,4′-pyrido[2,3-b][1,4,5]oxathiazepin]-2′(3′H)-yl)methyl)phenyl)-3-(8-methyl-3-(trifluoromethyl)-[1,2,4]triazolo[4,3-a]pyridin-7-yl)propanoic Acid] as the molecule, how does the EC50 read?
**A.** 1.5 nM

**Q.** With Cc1cnc2c(c1)S(=O)(=O)N(Cc1cc([C@H](CC(=O)O)c3ccn4c(C(F)(F)F)nnc4c3C)ccc1C)CC1(CC1)O2 (single isomer, unassigned) [Example 27, (*S)-3-(4-Methyl-3-((8′-methyl-1′,1′-dioxidospiro[cyclopropane-1,4′-pyrido[2,3-b][1,4,5]oxathiazepin]-2′(3′H)-yl)methyl)phenyl)-3-(8-methyl-3-(trifluoromethyl)-[1,2,4]triazolo[4,3-a]pyridin-7-yl)propanoic Acid] as the molecule, how does the EC50 read?
**A.** 28.8 nM
